This passage reports LogP results from US10039283B2, “Substituted pyrazolyl-nicotin(thio)amide derivatives and their use as fungicides” (BAYER CROPSCIENCE AKTIENGESELLSCHAFT, priority 2014, dated 2018).

The nature of this series: Log P by HPLC on reversed phase, method [a], acidic range (0.1% formic acid). The class given is physicochemical. The following applies: LC-UV, 0.1% formic acid in water and acetonitrile.
On to `Cc1cccc(-n2ncc(NC(=O)c3cc(C)cnc3C(F)F)c2C(C)C)c1` [Example 238], for which the LogP is 2.75^[a].

With `Cc1nn(-c2ccccc2)c(C)c1NC(=O)c1cccnc1C(F)(F)F` [Example 18], the LogP is 2.07^[a].

For `COc1c(NC(=O)c2cccnc2C(F)F)cnn1-c1ccccc1` [Example 98], the LogP was 1.82^[a].

With `CCc1c(NC(=O)c2cccnc2C(F)F)cnn1-c1cccc(C)c1` [Example 100], the LogP is 2.34^[a].

In the case of `O=C(Nc1cnn(-c2ccc(C(F)(F)F)cc2)c1-c1ccc(Cl)cc1)c1cccnc1C(F)F` [Example 182], the LogP is 3.55^[a].

As to `O=C(Nc1cnn(-c2ccccc2Cl)c1Cl)c1cccnc1C(F)F` [Example 191], the LogP was 2.17^[a].

With `Cc1nn(-c2ccccc2)c(C)c1NC(=O)c1cccnc1C(F)F` [Example 17], the LogP was 1.81^[a].

On to `O=C(Nc1cnn(-c2ccccc2F)c1-c1cccc(F)c1)c1cccnc1C(F)F` [Example 146], for which the LogP is 2.51^[a].

For `Cc1cnc(C(F)F)c(C(=O)Nc2cnn(-c3ccc(C(C)C)cc3)c2C(F)(F)F)c1` [Example 142], the LogP was 3.78^[a].

As to `O=C(Nc1cnn(-c2cccc(Br)c2)c1C(F)(F)F)c1cccnc1C(F)F` [Example 60], the LogP is 3.09^[a].

Take `CCCCn1ncc(NC(=O)c2cccnc2C(F)F)c1C` [Example 7]: the LogP is 1.69^[a].

As to `N#Cc1c(NC(=O)c2cccnc2C(F)F)cnn1-c1ccccc1` [Example 143], the LogP was 2.28^[a].

`O=C(Nc1cnn(-c2ccc(C(F)(F)F)cc2)c1-c1cccc(F)c1)c1cccnc1C(F)F` [Example 185]: the LogP was 3.31^[a].

In the case of `O=C(Nc1cnn(-c2cccc(Cl)c2)c1Br)c1cccnc1C(F)F` [Example 153], the LogP was 2.54^[a].

With `Cc1c(NC(=O)c2cccnc2C(F)F)cnn1-c1cccc(Cl)c1` [Example 5], the LogP was 2.25^[a].

`Cc1ccc(-n2ncc(NC(=O)c3cccnc3C(F)F)c2C(C)C)cc1` [Example 108]: the LogP was 2.48^[a].

On to `O=C(Nc1cnn(-c2ccc(Cl)cc2)c1C(F)(F)F)c1cccnc1C(F)F` [Example 10], for which the LogP was 3.02^[a].

For the compound `Cc1ccccc1-n1ncc(NC(=O)c2cccnc2C(F)F)c1C(F)F` [Example 27], the LogP was 2.37^[a].

As to `Cc1c(NC(=O)c2cccnc2C(F)F)cnn1-c1cccc(C(F)(F)F)c1` [Example 113], the LogP is 2.48^[a].

As to `O=C(Nc1cnn(-c2ccc(OC3CCCCC3)cc2)c1C(F)(F)F)c1cccnc1C(F)F` [Example 254], the LogP was 4.11^[a].

On to `Cc1cnc(C(F)F)c(C(=O)Nc2cnn(-c3cccc(C(F)(F)F)c3)c2C(F)(F)F)c1` [Example 139], for which the LogP is 3.39^[a].

For the compound `Cc1cnc(C(F)F)c(C(=O)Nc2cnn(-c3ccc(Cl)c(Cl)c3)c2C(F)(F)F)c1` [Example 179], the LogP is 3.76^[a].

Take `O=C(Nc1cnn(-c2ccc(Cl)cc2)c1-c1cccc(Cl)c1)c1cccnc1C(F)F` [Example 56]: the LogP was 3.35^[a].

For the compound `CCc1c(NC(=O)c2cccnc2C(F)F)cnn1-c1ccc(Cl)cc1` [Example 105], the LogP is 2.48^[a].

As to `Cc1cccc(-n2ncc(NC(=O)c3ccc(Cl)nc3C(F)F)c2C)c1` [Example 68], the LogP is 2.73^[a].

For the compound `O=C(Nc1cnn(-c2cccc(Cl)c2)c1C(F)(F)F)c1ccc(Cl)nc1C(F)F` [Example 155], the LogP was 3.62^[a].

As for `O=C(Nc1cnn(-c2ccccc2C(F)(F)F)c1C(F)(F)F)c1cccnc1C(F)F` [Example 49], the LogP is 2.82^[a].

As to `COc1ccc(-n2ncc(NC(=O)c3cccnc3C(F)F)c2Br)cc1` [Example 193], the LogP is 2.09^[a].

Regarding `O=C(Nc1cnn(-c2cccc(C(F)F)c2)c1C(F)F)c1cccnc1C(F)F` [Example 26], the LogP is 2.48^[a].

Take `O=C(Nc1cnn(-c2ccc(Cl)cc2)c1-c1ccc(Cl)cc1)c1cccnc1C(F)F` [Example 194]: the LogP was 3.35^[a].

On to `O=C(Nc1cnn(-c2ccccc2Cl)c1-c1cccc(F)c1)c1cccnc1C(F)F` [Example 82], for which the LogP is 2.66^[a].

As for `O=C(Nc1cnn(-c2ccccc2C(F)(F)F)c1-c1ccc(F)cc1)c1cccnc1C(F)F` [Example 130], the LogP is 2.80^[a].

Consider `Cc1ccc(C)c(-n2ncc(NC(=O)c3ccc(Cl)nc3C(F)F)c2C)c1` [Example 45], for which the LogP was 2.88^[a].

Take `COc1c(NC(=O)c2cccnc2C(F)F)cnn1-c1ccc(Br)cc1` [Example 152]: the LogP was 2.40^[a].

As for `O=C(Nc1cnn(-c2ccc(Oc3ccccc3)cc2)c1C(F)(F)F)c1cccnc1C(F)F` [Example 233], the LogP is 3.59^[a].

`Cc1c(NC(=O)c2cccnc2C(F)F)cnn1CCC(C)C` [Example 2]: the LogP was 2.01^[a].

Consider `Cc1cnc(C(F)F)c(C(=O)Nc2cnn(-c3c(Cl)cccc3Cl)c2C(F)(F)F)c1` [Example 171], for which the LogP is 3.16^[a].

As for `O=C(Nc1cnn(Cc2ccccc2)c1C(F)(F)F)c1ccc(Cl)nc1C(F)F` [Example 173], the LogP is 3.33^[a].

For the compound `CC(C)c1c(NC(=O)c2cccnc2C(F)F)cnn1-c1ccccc1` [Example 120], the LogP is 2.15^[a].

As to `CCc1c(NC(=O)c2cccnc2C(F)F)cnn1-c1ccccc1Cl` [Example 110], the LogP is 2.17^[a].

Consider `CCCc1ccc(-n2ncc(NC(=O)c3cccnc3C(F)F)c2C(F)(F)F)cc1` [Example 229], for which the LogP is 3.59^[a].

Regarding `Cc1cnc(C(F)F)c(C(=O)Nc2cnn(-c3ccc(F)cc3)c2C(F)(F)F)c1` [Example 141], the LogP is 2.86^[a].

In the case of `Cc1c(NC(=O)c2cccnc2C(F)F)cnn1C(C)(C)C` [Example 6], the LogP is 1.63^[a].

Consider `Cc1cccc(-n2ncc(NC(=O)c3cc(C)cnc3C(F)F)c2C(F)(F)F)c1` [Example 154], for which the LogP is 2.96^[a].

On to `O=C(Nc1cnn(-c2cccc(C(F)(F)F)c2)c1C(F)(F)F)c1cccnc1C(F)F` [Example 85], for which the LogP is 3.19^[a].

On to `O=C(Nc1cnn(-c2ccccc2F)c1C(F)(F)F)c1ccc(Cl)nc1C(F)F` [Example 158], for which the LogP was 3.15^[a].

For the compound `Cc1cnc(C(F)F)c(C(=O)Nc2cnn(-c3cccc(Cl)c3)c2C)c1` [Example 65], the LogP was 2.51^[a].

For `O=C(Nc1cnn(-c2ccc(Br)cc2)c1SC(F)(F)F)c1cccnc1C(F)F` [Example 228], the LogP was 3.43^[a].

In the case of `O=C(Nc1cnn(-c2cc(Cl)ccc2Cl)c1C(F)(F)F)c1ccc(Cl)nc1C(F)F` [Example 176], the LogP is 3.76^[a].

`Cc1cccc(-n2ncc(NC(=O)c3cccnc3C(F)F)c2C(F)(F)F)c1` [Example 86]: the LogP was 2.73^[a].

Consider `O=C(Nc1cnn(-c2ccc(Br)cc2)c1-c1cccc(Cl)c1)c1cccnc1C(F)F` [Example 199], for which the LogP was 3.46^[a].

For the compound `Cc1cnc(C(F)F)c(C(=O)Nc2cnn(C3CCCC3)c2C)c1` [Example 40], the LogP is 2.09^[a].

As for `Cc1cccc(-n2ncc(NC(=O)c3cccnc3C(F)F)c2C)c1` [Example 48], the LogP is 2.11^[a].

As for `Cc1c(NC(=O)c2cccnc2C(F)F)cnn1-c1ccccc1Cl` [Example 47], the LogP is 1.94^[a].
